The results in this text go back to patent US20220089575A1, “FARNESOID X RECEPTOR AGONISTS AND USES THEREOF” (Metacrine, Inc., priority 2017, published 2022).

Bounds are passed on as bounds.

The assay addresses T1, hFXR (Homo sapiens, UniProt Q96RI1).
T1 construct: expressed in transfected cells; host or cells: CV-1 cells
T1 sequence (Q96RI1 1-486): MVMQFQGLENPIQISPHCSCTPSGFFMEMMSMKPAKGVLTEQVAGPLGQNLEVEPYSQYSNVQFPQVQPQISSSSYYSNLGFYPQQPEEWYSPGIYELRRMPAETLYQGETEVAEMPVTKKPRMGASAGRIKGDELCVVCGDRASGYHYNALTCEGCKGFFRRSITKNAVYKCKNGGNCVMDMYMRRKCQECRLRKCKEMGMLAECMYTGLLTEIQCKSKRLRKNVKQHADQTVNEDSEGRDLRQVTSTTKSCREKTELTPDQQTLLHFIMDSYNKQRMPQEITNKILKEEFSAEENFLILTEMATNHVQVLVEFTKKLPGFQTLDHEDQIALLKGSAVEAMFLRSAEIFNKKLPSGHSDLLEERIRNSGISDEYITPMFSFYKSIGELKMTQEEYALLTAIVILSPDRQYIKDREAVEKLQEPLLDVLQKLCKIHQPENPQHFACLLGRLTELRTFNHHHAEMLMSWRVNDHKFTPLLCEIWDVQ
T1 sequence (P19793 1-462 partner): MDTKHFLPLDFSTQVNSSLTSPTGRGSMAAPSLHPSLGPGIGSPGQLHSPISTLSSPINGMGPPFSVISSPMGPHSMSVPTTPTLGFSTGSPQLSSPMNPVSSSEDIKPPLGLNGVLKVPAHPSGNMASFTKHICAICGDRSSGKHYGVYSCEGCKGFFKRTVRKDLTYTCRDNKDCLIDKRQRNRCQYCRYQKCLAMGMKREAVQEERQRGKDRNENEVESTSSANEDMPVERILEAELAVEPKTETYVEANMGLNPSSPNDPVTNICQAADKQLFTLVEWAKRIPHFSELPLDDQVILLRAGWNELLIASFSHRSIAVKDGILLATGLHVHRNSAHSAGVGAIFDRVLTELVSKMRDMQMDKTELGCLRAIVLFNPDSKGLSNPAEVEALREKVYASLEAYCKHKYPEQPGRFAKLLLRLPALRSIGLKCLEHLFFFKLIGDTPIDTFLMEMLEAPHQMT
The assay can be described thus: In Vitro FXR Assay (TK): TK-ECRE-luc reporter in transfected CV-1 cells. The settings on record: 18 hrs, luminescence, maximum efficacy of <25% of the Fexarmine control classified as '+'. The assay is classed as cell-based. The essentials: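 Cells are seeded in charcoal double-stripped FBS medium, transfected overnight with FXR/RXR expression and ECRE-driven luciferase reporter plasmids, then treated with serially diluted compounds for 18 h. Lysates are measured for luciferase light output.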

Turning to `COc1ccc([C@H]2CC[C@H](CN(c3cccc(-c4cnn(C(C)C)c4)c3)C(=O)[C@H]3CC[C@H](OC(=O)N4CCOCC4)CC3)CC2)nc1C` [Compound 6.43, trans-4-((3-(1-Isopropyl-1H-pyrazol-4-yl)phenyl)((trans-4-(5-methoxy-6-methylpyridin-2-yl)cyclohexyl)methyl)carbamoyl)cyclohexylmorpholine-4-carboxylate], the EC50 is at most 250 nM.

`COc1ccc([C@H]2CC[C@H](CN(c3cc(-c4coc(C(C)C)n4)ccn3)C(=O)[C@H]3CC[C@H](OC(=O)N4CC(CO)C4)CC3)CC2)nc1C` [Compound 7.97, trans-4-((4-(2-Isopropyloxazol-4-yl)pyridine-2-yl)((trans-4-(5-methoxy-6-methylpyridin-2-yl)cyclohexyl)methyl)carbamoyl)cyclohexyl 3-(hydroxymethyl)azetidine-1-carboxylate] registered an EC50 of at most 250 nM.

With `CN(C)c1ccc([C@H]2CC[C@H](CN(c3cccc(-c4cnn(C5CC5)c4)c3)C(=O)[C@H]3CC[C@H](OC(=O)N4CC(O)C4)CC3)CC2)cn1` [Compound 7.13, trans-4-((3-(1-Cyclopropyl-1H-pyrazol-4-yl)phenyl)((trans-4-(6-(dimethylamino)pyridin-3-yl)cyclohexyl)methyl)carbamoyl) cyclohexyl 3-hydroxyazetidine-1-carboxylate], the EC50 was at most 250 nM.

The compound `CNC(=O)O[C@H]1CC[C@@H](C(=O)N(CC2CCC(c3ccc(OC)c(C#N)c3)CC2)c2cc(-c3cnn(C(C)C)c3)ccn2)CC1` (stereo partly drawn) [Compound 5.19, cis-4-(((4-(3-Cyano-4-methoxyphenyl)cyclohexyl)methyl)(4-(1-isopropyl-1H-pyrazol-4-yl)pyridin-2-yl)carbamoyl)cyclohexyl methylcarbamate] returned an EC50 of at most 250 nM.

With `COc1ccc([C@H]2CC[C@H](CN(c3cc(-c4cnn(C(C)C)c4)ccn3)C(=O)[C@H]3CC[C@H](OC(=O)N(C)C)CC3)CC2)cc1C#N` [Compound 7.45, trans-4-(((trans-4-(3-Cyano-4-methoxyphenyl)cyclohexyl)methyl)(4-(1-isopropyl-1H-pyrazol-4-yl)pyridin-2-yl)carbamoyl)cyclohexyl dimethylcarbamate], the EC50 is at most 250 nM.

Compound `COc1ccc([C@H]2CC[C@H](CN(c3cccc(-c4coc(C(C)C)n4)c3)C(=O)[C@H]3CC[C@H](CC(=O)O)CC3)CC2)cc1C` [Compound 21.08, 2-(trans-4-((3-(2-lsopropyloxazol-4-yl)phenyl)((trans-4-(4-methoxy-3-methylphenyl)cyclohexyl)methyl)carbamoyl)cyclohexyl)acetic acid] registered an EC50 of at most 250 nM.

`CCNC(=O)O[C@H]1CC[C@H](C(=O)N(C[C@H]2CC[C@H](c3ccc(OC)c(C)n3)CC2)c2cc(-c3coc(C4CC4)n3)ccn2)CC1` [Compound 5.47, trans-4-((4-(2-Cyclopropyloxazol-4-yl)pyridine-2-yl)((trans-4-(5-methoxy-6-methylpyridin-2-yl)cyclohexyl)methyl)carbamoyl)cyclohexyl ethylcarbamate] displayed an EC50 of at most 250 nM.

As for `COc1ccc([C@H]2CC[C@H](CN(c3cc(-c4coc(C5CC5)n4)ccn3)C(=O)[C@H]3CC[C@H](OC(=O)N[C@@H](C)CO)CC3)CC2)nc1C` [Compound 6.93, trans-4-((4-(2-Cyclopropyloxazol-4-yl)pyridin-2-yl)((trans-4-(5-methoxy-6-methylpyridin-2-yl)cyclohexyl)methyl)carbamoyl)cyclohexyl ((S)-1-hydroxypropan-2-yl)carbamate], the EC50 is at most 250 nM.

Turning to `COc1ccc([C@H]2CC[C@H](CN(c3cc(-c4cnn(C(C)C)c4)ccn3)C(=O)[C@H]3CC[C@H](OC(=O)N4CC(CO)C4)CC3)CC2)nc1C` [Compound 7.59, trans-4-((4-(1-Isopropyl-1H-pyrazol-4-yl)pyridin-2-yl)((trans-4-(5-methoxy-6-methylpyridin-2-yl)cyclohexyl)methyl)carbamoyl)cyclohexyl 3-(hydroxymethyl)azetidine-1-carboxylate], the EC50 was at most 250 nM.

`COc1ccc([C@H]2CC[C@H](CN(c3cc(-c4coc(C5CC5)n4)ccn3)C(=O)[C@H]3CC[C@@H](OC(=O)N4CC(O)C4)CC3)CC2)nc1C` [Compound 7.96, 4-(4-(2-Cyclopropyloxazol-4-y)pyridine-2-yl)((4-(5-methoxy-6-methylpyridin-2-yl)cyclohexyl)methyl)carbamoyl) cyclohexyl-cis-3-hydroxyazetidine-1-carboxylate] had an EC50 of 250 to 1000 nM.

Compound `COc1ccc([C@H]2CC[C@H](CN(c3cc(-c4cnn(C(C)C)c4)ccn3)C(=O)[C@H]3CC[C@H](CC(=O)O)CC3)CC2)nc1C` [Compound 17.25, 2-(trans-4-((4-(1-Isopropyl-1H-pyrazol-4-yl)pyridin-2-yl)((trans-4-(5-methoxy-6-methylpyridin-2-yl)cyclohexyl)methyl)carbamoyl)cyclohexyl) acetic acid] came in with an EC50 of at most 250 nM.

For `CNC(=O)O[C@H]1CC[C@H](C(=O)N(CC23CCC(c4ccc(OC)c(C)c4)(CC2)CC3)c2cccc(-c3coc(C4CC4)n3)c2)CC1` [Compound 2.07, 4-((3-(2-Cyclopropyloxazol-4-yl)phenyl)((4-(4-methoxy-3-methylphenyl)bicyclo[2.2.2]octan-1-yl)methyl)carbamoyl)cyclohexyl trans-methylcarbamate], the EC50 is at most 250 nM.

As to `COc1ccc([C@H]2CC[C@H](CN(c3cccc(-c4cnn(C5CC5)c4)c3)C(=O)[C@H]3CC[C@H](OC(=O)NCCO)CC3)CC2)nc1C#N` [Compound 6.28, trans-4-(((trans-4-(6-Cyano-5-methoxypyridin-2-yl)cyclohexyl)methyl) (3-(1-cyclopropyl-1H-pyrazol-4-yl)phenyl)carbamoyl)cyclohexyl (2-hydroxyethyl)carbamate], the EC50 was at most 250 nM.

As to `COc1ccc([C@H]2CC[C@H](CN(c3cc(-c4cnn(C5CC5)c4)ccn3)C(=O)[C@H]3CC[C@H](NC(=O)CO)CC3)CC2)cc1C` [Compound 26.32, trans-N-(4-(1-Cyclopropyl-1H-pyrazol-4-yl)pyridin-2-yl)-4-(2-hydroxyacetamido)-N-((trans-4-(4-methoxy-3-methylphenyl)cyclohexyl)methyl) cyclohexanecarboxamide], the EC50 is at most 250 nM.

Consider `COc1ccc([C@H]2CC[C@H](CN(c3cc(-c4coc(C5CC5)n4)ccn3)C(=O)[C@H]3CC[C@H](OC(=O)N4CC(N(C)C)C4)CC3)CC2)cc1C` [Compound 7.81, trans-4-((4-(2-Cyclopropyloxazol-4-yl)pyridine-2-yl)((trans-4-(4-methoxy-3-methylphenyl)cyclohexyl)methyl)carbamoyl)cyclohexyl 3-(dimethylamino)azetidine-1-carboxylate], for which the EC50 was at most 250 nM.

In the case of `CCc1nc(-c2ccnc(N(C[C@H]3CC[C@H](c4ccc(OC)c(C)n4)CC3)C(=O)[C@H]3CC[C@H](OC(=O)NCCO)CC3)c2)co1` [Compound 6.85, trans-4-((4-(2-Ethyloxazol-4-yl)pyridin-2-yl)((trans-4-(5-methoxy-6-methylpyridin-2-yl)cyclohexyl)methyl)carbamoyl)cyclohexyl (2-hydroxyethyl)carbamate], the EC50 is at most 250 nM.

On to `COc1ccc([C@H]2CC[C@H](CN(c3cccc(-c4cnn(C5CC5)c4)c3)C(=O)[C@H]3CC[C@H](CO)CC3)CC2)cc1C` [Compound 15, trans-N-(3-(1-Cyclopropyl-1H-pyrazol-4-yl)phenyl)-4-(hydroxymethyl)-N-((trans-4-(4-methoxy-3-methylphenyl)cyclohexyl)methyl) cyclohexanecarboxamide], for which the EC50 is at most 250 nM.

`COc1ccc([C@H]2CC[C@H](CN(c3cccc(-c4cnn(C5CC5)c4)c3)C(=O)[C@H]3CC[C@H](OC(=O)N4CC(OC)C4)CC3)CC2)cc1C` [Compound 4.06, trans-4-((3-(1-Cyclopropyl-1H-pyrazol-4-yl)phenyl)((trans-4-(4-methoxy-3-methylphenyl)cyclohexyl)methyl)carbamoyl)cyclohexyl 3-methoxyazetidine-1-carboxylate]: the 50% effective concentration (EC50) was at most 250 nM.

In turn, `COc1ccc([C@H]2CC[C@H](CN(c3cc(-c4cnn(C(C)C)c4)ccn3)C(=O)[C@H]3CC[C@H](OC(=O)N4CCN(C)CC4)CC3)CC2)cc1C#N` [Compound 6.38, trans-4-(((trans-4-(3-Cyano-4-methoxyphenyl)cyclohexyl)methyl)(4-(1-isopropyl-1H-pyrazol-4-yl)pyridin-2-yl)carbamoyl)cyclohexyl 4-methylpiperazine-1-carboxylate] yielded an EC50 of at most 250 nM.

Broadly, the EC50 is the midpoint of the concentration-response curve. High values mean a need for much substance, low ones an effect from little substance.
